Where two headings read alike, the source gives them in different places.
System: patients with advanced metastatic cancer
Excerpt: In this phase 1 study, dose escalation was followed by expansion cohorts of once-daily, oral M2698 in continuous 21-day cycles. Primary objectives were to determine the maximum tolerated dose (MTD), dose-limiting toxicities (DLTs), and recommended phase 2 dose (RP2D). Secondary objectives were to assess safety and tolerability, pharmacokinetics (PK, including food effect) and antitumor activity. Pharmacodynamic biomarker assessments were exploratory. Treatment was discontinued if there was disease progression, toxicity or consent withdrawal.
In Part 1, M2698 monotherapy was investigated in a dose escalation with a food effect cohort. In Part 2, M2698 was investigated as monotherapy (expansion cohort) to further characterize safety, tolerability and pharmacokinetics, and assess antitumor activity in PAM + patients without confounding markers (exploratory).
Dose escalation analysis included all patients who experienced a DLT and those who received ≥ 80% of planned M2698 doses in cycle 1 without experiencing a DLT. Safety analysis included all patients who received ≥ 1 dose of M2698. PK analysis included all patients who received ≥ 1 dose of M2698 and had measurable plasma concentrations. Dose proportionality was tested using the power model (linear regression approach on the log -transformed scale).

## NC(=O)c1cccc2c(N[C@H](CN3CCC3)c3ccc(Cl)c(C(F)(F)F)c3)ncnc12 [M2698]
200 mg n=3
  M2698-related TEAE: Delusion: 0
  M2698-related TEAE: Depression: 0
  M2698-related TEAE: Diarrhoea: 0
  M2698-related TEAE: Diarrhoea haemorrhagic: 0
  M2698-related TEAE: Dizziness: 0
  M2698-related TEAE: Dry eye: 0
  M2698-related TEAE: Dry mouth: 0
  M2698-related TEAE: Dysgeusia: 0
  M2698-related TEAE: Dyspepsia: 0
  M2698-related TEAE: Dysphagia: 0
  M2698-related TEAE: Energy increased: 0
  M2698-related TEAE: Erythema: 0
  M2698-related TEAE: Euphoric mood: 0
  M2698-related TEAE: Eye disorders: 0
  M2698-related TEAE: Fatigue: 0
  M2698-related TEAE: Gamma-glutamyltransferase increased: 0
  M2698-related TEAE: Gastrointestinal disorders: 1
  M2698-related TEAE: Gastrooesophageal reflux disease: 0
  M2698-related TEAE: General disorders and administration site conditions: 0
  M2698-related TEAE: Headache: 0
  M2698-related TEAE: Hyperhidrosis: 0
  M2698-related TEAE: Hypokalaemia: 0
  M2698-related TEAE: Hypomagnesaemia: 0
  M2698-related TEAE: Insomnia: 0
  M2698-related TEAE: Investigations: 0
  M2698-related TEAE: Lipase increased: 0
  M2698-related TEAE: Lymphopenia: 0
  M2698-related TEAE: Metabolism and nutrition disorders: 1
  M2698-related TEAE: Mucosal inflammation: 0
  M2698-related TEAE: Nausea: 1
  M2698-related TEAE: Nervous system disorders: 0
  M2698-related TEAE: Nightmare: 0
  M2698-related TEAE: Onychomadesis: 0
  M2698-related TEAE: Paranoia: 0
  M2698-related TEAE: Photosensitivity reaction: 0
  M2698-related TEAE: Posterior reversible encephalopathy syndrome: 0
  M2698-related TEAE: Pruritus generalised: 0
  M2698-related TEAE: Psychiatric disorders: 0
  M2698-related TEAE: Rash: 0
  M2698-related TEAE: Rash maculo-papular: 0
  M2698-related TEAE: Skin and subcutaneous tissue disorders: 0
  M2698-related TEAE: Subjects with at least one event: 1
  M2698-related TEAE: Transaminases increased: 0
  M2698-related TEAE: Tremor: 0
  M2698-related TEAE: Vision blurred: 0
  M2698-related TEAE: Vomiting: 0
  M2698-related TEAE: White blood cell count decreased: 0
240 mg n=17
  M2698-related TEAE: Abnormal dreams: 2
  M2698-related TEAE: Affect lability: 0
  M2698-related TEAE: Alanine aminotransferase increased: 0
  M2698-related TEAE: Amylase increased: 0
  M2698-related TEAE: Anaemia: 0
  M2698-related TEAE: Angina pectoris: 0
  M2698-related TEAE: Anxiety: 0
  M2698-related TEAE: Aphasia: 0
  M2698-related TEAE: Ataxia: 0
  M2698-related TEAE: Blood and lymphatic system disorders: 0
  M2698-related TEAE: Blood creatine phosphokinase increased: 0
  M2698-related TEAE: Blood creatinine increased: 1
  M2698-related TEAE: Cardiac disorders: 0
  M2698-related TEAE: Cognitive disorder: 1
  M2698-related TEAE: Constipation: 0
  M2698-related TEAE: Decreased appetite: 0
  M2698-related TEAE: Delusion: 0
  M2698-related TEAE: Depression: 1
  M2698-related TEAE: Diarrhoea: 2
  M2698-related TEAE: Diarrhoea haemorrhagic: 0
  M2698-related TEAE: Dizziness: 1
  M2698-related TEAE: Dry eye: 0
  M2698-related TEAE: Dry mouth: 0
  M2698-related TEAE: Dysgeusia: 0
  M2698-related TEAE: Dyspepsia: 0
  M2698-related TEAE: Dysphagia: 0
  M2698-related TEAE: Energy increased: 0
  M2698-related TEAE: Erythema: 0
  M2698-related TEAE: Euphoric mood: 0
  M2698-related TEAE: Eye disorders: 0
  M2698-related TEAE: Fatigue: 3
  M2698-related TEAE: Gamma-glutamyltransferase increased: 0
  M2698-related TEAE: Gastrointestinal disorders: 4
  M2698-related TEAE: Gastrooesophageal reflux disease: 1
  M2698-related TEAE: General disorders and administration site conditions: 3
  M2698-related TEAE: Headache: 1
  M2698-related TEAE: Hyperhidrosis: 0
  M2698-related TEAE: Hypokalaemia: 0
  M2698-related TEAE: Hypomagnesaemia: 0
  M2698-related TEAE: Insomnia: 0
  M2698-related TEAE: Investigations: 1
  M2698-related TEAE: Lipase increased: 0
  M2698-related TEAE: Lymphopenia: 0
  M2698-related TEAE: Metabolism and nutrition disorders: 0
  M2698-related TEAE: Mucosal inflammation: 0
  M2698-related TEAE: Nausea: 3
  M2698-related TEAE: Nervous system disorders: 3
  M2698-related TEAE: Nightmare: 0
  M2698-related TEAE: Onychomadesis: 0
  M2698-related TEAE: Paranoia: 0
  M2698-related TEAE: Photosensitivity reaction: 0
  M2698-related TEAE: Posterior reversible encephalopathy syndrome: 0
  M2698-related TEAE: Pruritus generalised: 0
  M2698-related TEAE: Psychiatric disorders: 3
  M2698-related TEAE: Rash: 0
  M2698-related TEAE: Rash maculo-papular: 0
  M2698-related TEAE: Skin and subcutaneous tissue disorders: 0
  M2698-related TEAE: Subjects with at least one event: 9
  M2698-related TEAE: Transaminases increased: 0
  M2698-related TEAE: Tremor: 1
  M2698-related TEAE: Vision blurred: 0
  M2698-related TEAE: Vomiting: 1
  M2698-related TEAE: White blood cell count decreased: 0
320 mg n=12
  M2698-related TEAE: Abnormal dreams: 2
  M2698-related TEAE: Affect lability: 0
  M2698-related TEAE: Alanine aminotransferase increased: 0
  M2698-related TEAE: Amylase increased: 0
  M2698-related TEAE: Anaemia: 1
  M2698-related TEAE: Angina pectoris: 0
  M2698-related TEAE: Anxiety: 1
  M2698-related TEAE: Aphasia: 1
  M2698-related TEAE: Ataxia: 1
  M2698-related TEAE: Blood and lymphatic system disorders: 1
  M2698-related TEAE: Blood creatine phosphokinase increased: 0
  M2698-related TEAE: Blood creatinine increased: 1
  M2698-related TEAE: Cardiac disorders: 0
  M2698-related TEAE: Cognitive disorder: 0
  M2698-related TEAE: Constipation: 2
  M2698-related TEAE: Decreased appetite: 1
  M2698-related TEAE: Delusion: 1
  M2698-related TEAE: Depression: 1
  M2698-related TEAE: Diarrhoea: 4
  M2698-related TEAE: Diarrhoea haemorrhagic: 0
  M2698-related TEAE: Dizziness: 0
  M2698-related TEAE: Dry eye: 0
  M2698-related TEAE: Dry mouth: 0
  M2698-related TEAE: Dysgeusia: 0
  M2698-related TEAE: Dyspepsia: 1
  M2698-related TEAE: Dysphagia: 0
  M2698-related TEAE: Energy increased: 0
  M2698-related TEAE: Erythema: 0
  M2698-related TEAE: Euphoric mood: 0
  M2698-related TEAE: Eye disorders: 0
  M2698-related TEAE: Fatigue: 1
  M2698-related TEAE: Gamma-glutamyltransferase increased: 0
  M2698-related TEAE: Gastrointestinal disorders: 8
  M2698-related TEAE: Gastrooesophageal reflux disease: 0
  M2698-related TEAE: General disorders and administration site conditions: 2
  M2698-related TEAE: Headache: 0
  M2698-related TEAE: Hyperhidrosis: 1
  M2698-related TEAE: Hypokalaemia: 1
  M2698-related TEAE: Hypomagnesaemia: 1
  M2698-related TEAE: Insomnia: 1
  M2698-related TEAE: Investigations: 1
  M2698-related TEAE: Lipase increased: 0
  M2698-related TEAE: Lymphopenia: 0
  M2698-related TEAE: Metabolism and nutrition disorders: 2
  M2698-related TEAE: Mucosal inflammation: 1
  M2698-related TEAE: Nausea: 6
  M2698-related TEAE: Nervous system disorders: 4
  M2698-related TEAE: Nightmare: 0
  M2698-related TEAE: Onychomadesis: 0
  M2698-related TEAE: Paranoia: 1
  M2698-related TEAE: Photosensitivity reaction: 1
  M2698-related TEAE: Posterior reversible encephalopathy syndrome: 0
  M2698-related TEAE: Pruritus generalised: 1
  M2698-related TEAE: Psychiatric disorders: 3
  M2698-related TEAE: Rash: 0
  M2698-related TEAE: Rash maculo-papular: 0
  M2698-related TEAE: Skin and subcutaneous tissue disorders: 3
  M2698-related TEAE: Subjects with at least one event: 9
  M2698-related TEAE: Transaminases increased: 0
  M2698-related TEAE: Tremor: 3
  M2698-related TEAE: Vision blurred: 0
  M2698-related TEAE: Vomiting: 0
  M2698-related TEAE: White blood cell count decreased: 0
380 mg n=4
  M2698-related TEAE: Abnormal dreams: 0
  M2698-related TEAE: Affect lability: 0
  M2698-related TEAE: Alanine aminotransferase increased: 0
  M2698-related TEAE: Amylase increased: 0
  M2698-related TEAE: Anaemia: 0
  M2698-related TEAE: Angina pectoris: 0
  M2698-related TEAE: Anxiety: 0
  M2698-related TEAE: Aphasia: 0
  M2698-related TEAE: Ataxia: 0
  M2698-related TEAE: Blood and lymphatic system disorders: 0
  M2698-related TEAE: Blood creatine phosphokinase increased: 1
  M2698-related TEAE: Blood creatinine increased: 0
  M2698-related TEAE: Cardiac disorders: 0
  M2698-related TEAE: Cognitive disorder: 0
  M2698-related TEAE: Constipation: 0
  M2698-related TEAE: Decreased appetite: 0
  M2698-related TEAE: Delusion: 0
  M2698-related TEAE: Depression: 0
  M2698-related TEAE: Diarrhoea: 0
  M2698-related TEAE: Diarrhoea haemorrhagic: 1
  M2698-related TEAE: Dizziness: 0
  M2698-related TEAE: Dry eye: 0
  M2698-related TEAE: Dry mouth: 0
  M2698-related TEAE: Dysgeusia: 0
  M2698-related TEAE: Dyspepsia: 0

— publication PMC8371902, “Phase 1 study of M2698, a p70S6K/AKT dual inhibitor, in patients with advanced cancer” (Journal of Hematology & Oncology, 2021)
